Patent US20250177366A1, “COMPOSITIONS AND METHODS FOR ALLEVIATING PAIN AND REDUCING ADVERSIVENESS OF STIMULI” (UNIVERSITY OF WASHINGTON, priority 2021, published 2025)

Tested on: larval zebrafish
Experiment: Thermal preference assay (28.5° C. vs 37.5° C.), non-sensitized
Type: in vivo, Zebrafish (Danio rerio)
Settings: for effect of co-applied drug on AS1-induced attraction to noxious heat / temperature choice, drug alone / effect of structural analog on temperature preference (time spent in the 28.5° C. zone): 28.5° C. vs 37.5° C.; for effect of co-applied drug on AS1-induced attraction to noxious heat: drug + 5 μM AS1; for temperature choice, drug alone: without AS1; for effect of structural analog on temperature preference (time spent in the 28.5° C. zone): at the tested concentration; for Reverses 28.5° C. Choice?: temperature preference 28.5° C. vs 37.5° C., larval zebrafish
Protocol: Thermal preference assay. […] Once an entire plate was loaded with fish, the appropriate incubation solution was added. […] Following incubation in all experiments, the choice testing plate was transported to a dual solid-state heat/cool plate (AHP-1200° C. P; Teca) and centered such that half of each arena was positioned over each side of the heat/cool plate. […] Locomotor behavior was recorded using a Canon high-definition video camcorder suspended at a fixed position above the choice testing plate. Each trial was four minutes in duration.
For single-incubation assays (e.g. testing single chemicals), larval zebrafish were caught in 100 μL E2 media and 100 μL of the control (2% DMSO) or test chemical at 2× concentration was added to each well to achieve the final desired concentration. […] The final DMSO concentration in all solutions was 1%.

O=C(OCCN1CCOCC1)C1(c2ccccc2)CCCCC1 [PRE-084]
effect of co-applied drug on AS1-induced attraction to noxious heat: At no concentration did PRE-084 influence AS1-induced attraction towards noxious heat
temperature choice, drug alone: potentiating preference for the 28.5 °C zone

Cc1ccc(C(=O)Nc2ccncc2)c(C)c1 [Compound 7755382, 2,4-dimethyl-N-4-pyridinylbenzamide]
effect of structural analog on temperature preference (time spent in the 28.5° C. zone): prevented an analogue from replicating the effects of AS1
Reverses 28.5° C. Choice?: No

CCc1ccc(C(=O)Nc2cccnc2)cc1 [Compound 7947669, 4-ethyl-N-3-pyridinylbenzamide]
Reverses 28.5° C. Choice?: No

Cc1cc(C)c(C(=O)Nc2ccncc2)c(C)c1 [Compound 9047736, 2,4,6-trimethyl-N-4-pyridinylbenzamide]
effect of structural analog on temperature preference (time spent in the 28.5° C. zone): prevented an analogue from replicating the effects of AS1
Reverses 28.5° C. Choice?: No

CCCCc1ccc(C(=O)Nc2ccncc2)cc1 [Compound 9098532, 4-butyl-N-4-pyridinylbenzamide]
effect of structural analog on temperature preference (time spent in the 28.5° C. zone): prevented an analogue from replicating the effects of AS1
Reverses 28.5° C. Choice?: No

Cc1noc(C)c1C(=O)Nc1ccc(C(C)C)cc1 [Compound 9089180, N-(4-isopropylphenyl)-3,5-dimethyl-4-isoxazolecarboxamide]
effect of structural analog on temperature preference (time spent in the 28.5° C. zone): had a significant (if small) influence upon temperature choice behavior
Reverses 28.5° C. Choice?: No

CN1C(=O)CN=C(c2ccccc2)c2cc(Cl)ccc21 [diazepam]
temperature choice, drug alone: potentiated preference for 28.5 °C

CC(C)c1ccc(C(=O)Nc2cccnc2)cc1 [Compound 7301738, 4-isopropyl-N-3-pyridinylbenzamide]
effect of structural analog on temperature preference (time spent in the 28.5° C. zone): only had a small, if still significant, effect on temperature preference
Reverses 28.5° C. Choice?: No

Cn1c(=O)c2c(ncn2C)n(C)c1=O [caffeine]
temperature choice, drug alone: did not affect thermal preference for 28.5 °C

COc1ccc(Br)cc1CCc1c(F)cccc1C1=NCCN1 [ML00253764]
effect of co-applied drug on AS1-induced attraction to noxious heat: At no concentration did ML00253764 reduce AS1-induced attraction towards noxious heat
temperature choice, drug alone: slightly potentiate preference towards the 28.5 °C zone

CN1CCN(CCc2ccc(Cl)c(Cl)c2)CC1 [BD1063]
effect of co-applied drug on AS1-induced attraction to noxious heat: At no concentration did BD1063 influence AS1-induced attraction towards noxious heat
temperature choice, drug alone: significantly chose the 28.5 °C side

COc1ccc(CC2NCCc3c2[nH]c2ccc(C)cc32)c(Cl)c1OC (stereo not drawn) [LY266097]
effect of co-applied drug on AS1-induced attraction to noxious heat: At no concentration did LY266097 influence AS1-induced attraction towards noxious heat
temperature choice, drug alone: significantly chose the 28.5 °C side

CC(C)c1ccc(NC(=O)c2cccnc2)cc1 [Compound 5538018, N-(4-isopropylphenyl)nicotinamide]
Reverses 28.5° C. Choice?: No

CCCc1ccc(C(=O)Nc2ccncc2)cc1 [Compound 9089110, 4-propyl-N-4-pyridinylbenzamide]
effect of structural analog on temperature preference (time spent in the 28.5° C. zone): abolished preference for either side
effect of structural analog on temperature preference (time spent in the 28.5° C. zone) (listed as Analog 9089110): completely ablated aversion
Reverses 28.5° C. Choice?: No preference for either temperature

O=C1CC2(CCCC2)CC(=O)N1CCCCN1CCN(c2ncccn2)CC1 [Buspirone, buspirone]
temperature choice, drug alone: had no effect upon thermal preference

CCCc1ccc(C(=O)Nc2cccnc2)cc1 [Compound 9090934, 4-propyl-N-3-pyridinylbenzamide]
effect of structural analog on temperature preference (time spent in the 28.5° C. zone): has no effect upon temperature preference
Reverses 28.5° C. Choice?: No

CC(N)Cc1c[nH]c2ccc(OCc3cccs3)cc12 (stereo not drawn) [BW723C86]
effect of co-applied drug on AS1-induced attraction to noxious heat: At no concentration did BW723C86 influence AS1-induced attraction towards noxious heat
temperature choice, drug alone: significantly chose the 28.5 °C side
